Measured values: publication PMC6753678, “Fueling Open Innovation for Malaria Transmission-Blocking Drugs: Hundreds of Molecules Targeting Early Parasite Mosquito Stages” (Frontiers in Microbiology, 2019)
Where two headings read alike, the source gives them in different places.

How the values were obtained:
[1] = tested on: 3D7-strain P. falciparum asexual parasites; assay: P. falciparum asexual growth inhibition assay (Pf GIA); format: cell-based, Plasmodium falciparum; conditions: dose response confirmation; read-out: Pf asexual growth inhibition assays IC50
Summary of the method: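 Parasites at 0.25% parasitemia, 2% hematocrit in Albumax-supplemented RPMI were exposed to compounds in dose response for 72 h at 37°C under 5% CO2/5% O2. Viability was read as LDH activity (NBT/diaphorase, A650 after freeze-thaw). Percent inhibition was calculated against chloroquine and DMSO controls, mean of three biological replicates.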

HepG2 cells [2] = assay: HepG2 cytotoxicity assay; conditions: for IC50: read-out: HepG2 cytotoxicity assay IC50, dose response confirmation
Summary of the method: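 Here viability after a 48 h compound incubation (37°C, humidified 5% CO2) is measured by fluorescence and expressed as percent inhibition, with doxorubicin at 50 μM and DMSO as the bounding controls.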

[3] = tested on: P. berghei ookinete development; conditions: for Is compound selective in assay? Pb ODA active?: 1: YES, 0: NO; for % inhibition, Replicate A / % inhibition, Replicate B: primary screen at 1 μM
[4] = tested on: P. falciparum late stage (stages IV-V) gametocytes; set-up: method as in Almela et al 2016; conditions: ref Almela et al 2016, read-out: Pf GCT ATP IC50, cited from earlier work
HepG2 cells [5] = conditions: ref Almela et al 2016, cited from earlier work
[6] = tested on: P. falciparum late stage (stages IV-V) gametocytes; assay: P. falciparum late stage gametocyte ATP depletion assay (Pf GC-ATP); conditions: 1: YES, 0: NO
[7] = HepG2 values of the three screens unified
[8] = read-out: Pb ODA IC50, this manuscript
[9] = read-out: Pb Ookinete development assay IC50, dose response confirmation
[10] = unified HepG2 value across the three screens
[11] = P. falciparum late stage gametocyte ATP assay
[12] = HepG2 data listed with Pf GCT ATP screen
[13] = HepG2 cytotoxicity unified across screens, >25 set to 25.00
[14] = P. falciparum late stage gametocyte ATP assay, TCAMS screen
[15] = reported with the Pf GCT ATP screen
[16] = >10-fold selectivity over cytotoxicity

| SMILES | Is compound selective in assay? Pf GC-ATP active? [6] | Unified cytotox (HepG2 cells [2]; [13]) [µM] | IC50 [4, 14] [nM] | HepG2 cytoxicity (HepG2 cells [5]; [15]) [µM] | Is compound selective in assay? Pf GC-ATP active? [6, 16] | further results |
| --- | --- | --- | --- | --- | --- | --- |
| Cn1nc(C(F)(F)F)c(-c2ccc(Br)cc2)c1NC(=O)Cc1ccccc1F [TCMDC-123792] | 1 (1: YES) |  |  |  |  | IC50 [1]: 206 nM; Unified cytotox (HepG2 cells [2]; [7]): 100.00 µM; IC50 (HepG2 cells [2]): 100000 nM; Is compound selective in assay? Pb ODA active? [3]: 1 (1: YES); % inhibition, Replicate A [3]: 45.62%; % inhibition, Replicate B [3]: 73.81%; IC50 [3, 8]: 2120 nM; IC50 [3, 9]: 2120 nM; IC50 [4]: 1790 nM; HepG2 cytoxicity (Pf GCT ATP screen) (HepG2 cells [5]): >25 µM |
| CN1c2ccc([N+](=O)[O-])cc2C(C)(C)C12C=Cc1cc(Br)cc([N+](=O)[O-])c1O2 (stereo not shown) [TCMDC-124178] | 1 (1: YES) |  |  |  |  | IC50 [1]: 197 nM; HepG2 cytoxicity (Pb ODA, this manuscript) (HepG2 cells [2]): 29.17 µM; Unified cytotox (HepG2 cells [2]; [7]): 29.17 µM; IC50 (HepG2 cells [2]): 29200 nM; Is compound selective in assay? Pb ODA active? [3]: 1 (1: YES); % inhibition, Replicate A [3]: 65.23%; % inhibition, Replicate B [3]: 65.28%; IC50 [3, 8]: 1600 nM; IC50 [3, 9]: 1600 nM; IC50 [4]: 1090 nM; HepG2 cytoxicity (Pf GCT ATP screen) (HepG2 cells [5]): >25 µM |
| Cl.Cl.c1ccc2c(NCCCCCCNc3c4ccccc4nc4ccccc34)c3ccccc3nc2c1 [TCMDC-124285] | 1 (1: YES) |  |  |  |  | IC50 [1]: 532 nM; HepG2 cytoxicity (Pb ODA, this manuscript) (HepG2 cells [2]): 8.13 µM; Unified cytotox (HepG2 cells [2]; [7]): 7.56 µM; IC50 (HepG2 cells [2]): 8130 nM; Is compound selective in assay? Pb ODA active? [3]: 0 (0: NO); % inhibition, Replicate A [3]: 78.92%; % inhibition, Replicate B [3]: 53.92%; IC50 [3, 8]: 1500 nM; IC50 [3, 9]: 1500 nM; IC50 [4]: 250 nM; HepG2 cytoxicity (Pf GCT ATP screen) (HepG2 cells [5]): 7 µM |
| O=[N+]([O-])c1ccc(C=NNc2nc(Nc3ccccc3)nc(Nc3ccccc3)n2)o1 [TCMDC-125802] | 1 (1: YES) |  |  |  |  | Unified cytotox (HepG2 cells [2]; [10]): 14.82 µM; IC50 [4, 11]: 1310 nM; HepG2 cytoxicity (HepG2 cells [5]; [12]): 14.82 µM |
| Cc1cccnc1Nc1nc(-c2ccccn2)cs1 [TCMDC-125846] | 1 (1: YES) |  |  |  |  | Unified cytotox (HepG2 cells [2]; [10]): 3.02 µM; IC50 [4, 11]: 100 nM; HepG2 cytoxicity (HepG2 cells [5]; [12]): 3.02 µM |
| COc1cccc(CCNCCCCCCNCCc2ccc(Cl)cc2)c1.Cl [TCMDC-131284] | 1 (1: YES) |  |  |  |  | Unified cytotox (HepG2 cells [2]; [10]): 6.10 µM; IC50 [4, 11]: 530 nM; HepG2 cytoxicity (HepG2 cells [5]; [12]): 6.1 µM |
| CCNC1=NC2=C(CC(C(C)(C)C)CC2)C2(CCC(C(C)(C)C)CC2)S1.Cl (stereo not shown) [TCMDC-131288] | 0 (0: NO) |  |  |  |  | Unified cytotox (HepG2 cells [2]; [10]): 14.30 µM; IC50 [4, 11]: 3000 nM; HepG2 cytoxicity (HepG2 cells [5]; [12]): 14.3 µM |
| CCN(CC)/C(=N\CCCCCC/N=C(\NC(=N)c1ccc(Cl)cc1)N(CC)CC)NC(=N)c1ccc(Cl)cc1 [TCMDC-131806] | 1 (1: YES) |  |  |  |  | Unified cytotox (HepG2 cells [2]; [10]): 43.60 µM; IC50 [4, 11]: 840 nM; HepG2 cytoxicity (HepG2 cells [5]; [12]): 43.6 µM |
| SC(=Nc1ccc2c(c1)OCCO2)NN=Cc1ccccn1 [TCMDC-132009] | 0 (0: NO) |  |  |  |  | Unified cytotox (HepG2 cells [2]; [10]): 3.28 µM; IC50 [4, 11]: 830 nM; HepG2 cytoxicity (HepG2 cells [5]; [12]): 3.28 µM |
| COc1ccc(CCNc2nc(NCc3ccccc3)c3cc(OC)c(OC)cc3n2)cc1OC [TCMDC-132017] | 0 (0: NO) |  |  |  |  | Unified cytotox (HepG2 cells [2]; [10]): 4.58 µM; IC50 [4, 11]: 5600 nM; HepG2 cytoxicity (HepG2 cells [5]; [12]): 4.58 µM |
| COc1cc2c(c(Cl)c1OC)CCN(C(=O)C(F)(F)F)CC2c1ccccc1 (stereo not shown) [TCMDC-132071] |  | 25.00 | 1950 | >25 | 1 (1: YES) |  |
| Fc1ccc2[nH]c(-c3ccc(-c4ccc(CNCCN5CCNCC5)cc4)s3)nc2c1.O=C(O)C(F)(F)F [TCMDC-132869] |  | 25.00 | 530 | >25 | 1 (1: YES) |  |
| Nc1ncc(-c2ccc3nccc(-c4ccncc4)c3c2)cc1S(=O)(=O)N1CCCCC1 [TCMDC-134265] |  | 25.00 | 2070 | >25 | 1 (1: YES) |  |
| COc1cccc(Nc2c(C(N)=O)cnc3ccc(-c4ccc([S+](C)[O-])cc4)cc23)c1.O=C(O)C(F)(F)F (stereo not shown) [TCMDC-135184] |  | 25.00 | 1430 | >25 | 1 (1: YES) |  |
| COc1cc(NC(=O)c2sc(-c3ccc(Cl)cc3)cc2NC(=O)c2cccnc2)ccc1OCCN1CCCC1 [TCMDC-135397] |  | 25.00 | 610 | >25 | 1 (1: YES) |  |
| Cc1ccc(-n2c(C)nc3c(Nc4ccc(-c5ccncc5)cc4)ncnc32)c(C)c1 [TCMDC-136289] |  | 25.00 | 530 | >25 | 1 (1: YES) |  |
| CS(=O)(=O)c1cccc(-c2cnc3[nH]cc(-c4cccc(CCN)c4)c3c2)c1 [TCMDC-136307] |  | 25.00 | 470 | >25 | 1 (1: YES) |  |
| CCn1ncc2c(NC3CCOCC3)c(CNC(=O)c3ccnn3C)c(C)nc21 [TCMDC-136560] |  | 25.00 | 1640 | >25 | 1 (1: YES) |  |
| Cl.Ic1cc(CNC2CCCCC2)ccc1OCc1cccc(COc2ccc(CNC3CCCCC3)cc2I)c1 [TCMDC-137261] |  | 25.00 | 330 | >25 | 1 (1: YES) |  |
| COc1ccc2nc3cc(Cl)ccc3c(NCCCCCCNc3c4ccc(Cl)cc4nc4ccc(OC)cc34)c2c1.Cl.Cl.Cl.Cl [TCMDC-137503] |  | 25.00 | 50 | >25 | 1 (1: YES) |  |
| CC(C)CCNC(=N)Nc1ccc(OCCCCCOc2ccc(NC(=N)NCCC(C)C)cc2)cc1 [TCMDC-137614] |  | 25.00 | 510 | >25 | 1 (1: YES) |  |
| CC(C)CCNC(=N)Nc1ccc(OCCCOc2ccc(NC(=N)NCCC(C)C)cc2)cc1 [TCMDC-137615] |  | 25.00 | 290 | >25 | 1 (1: YES) |  |
| CC(=NNC(=S)NCCc1ccccn1)c1ccccn1 [TCMDC-137895] |  | 25.00 | 1490 | >25 | 1 (1: YES) |  |
| COc1cc2nc(NCC3CCN(c4nc(N)c5cc(OC)c(OC)cc5n4)CC3)nc(N)c2cc1OC [TCMDC-138723] |  | 25.00 | 1420 | >25 | 1 (1: YES) |  |
| CCN(CC)Cc1cc(Nc2c3ccc(Cl)cc3nc3cccc(OC)c23)ccc1O.Cl [TCMDC-139222] |  | 25.00 | 1000 | >25 | 1 (1: YES) |  |
| N=C(N)Nc1nc(-c2ccc(NC(=O)Nc3cccc(-c4csc(NC(=N)N)n4)c3)cc2)cs1 [TCMDC-139559] |  | 25.00 | 1430 | >25 | 1 (1: YES) |  |
| CC(Cc1ccc(CNC(=O)NCc2ccc(CC(C)NCCc3cccc(Cl)c3)cc2)cc1)NCCc1cccc(Cl)c1 (stereo not shown) [TCMDC-139648] | 0 (0: NO) |  |  |  |  | Unified cytotox (HepG2 cells [2]; HepG2 cytotoxicity unified across the three screens): 4.18 µM; IC50 ([4]; TCAMS screen comparison): 610 nM; HepG2 cytoxicity (HepG2 cells [5]; value reported with the Pf GCT ATP screen): 4.18 µM |
| CC(C)CNCc1cccc(-c2cccc(CNCCCN3CCN(C)CC3)c2)c1.O=C(O)C(F)(F)F [TCMDC-140483] |  | 25.00 | 1560 | >25 | 1 (1: YES) |  |
| CC(C)CNCc1cccc(-c2ccc(CN(CCCN3CCN(C)CC3)C(=O)CCC3CCCC3)cc2)c1.O=C(O)C(F)(F)F [TCMDC-140558] |  | 25.00 | 700 | >25 | 1 (1: YES) |  |
